# In patent publication US20240277847A1, “BENCH-STABLE TRIAZENE COMPOSITIONS FOR PROTEIN MODIFICATION” (ARIZONA BOARD OF REGENTS ON BEHALF OF THE UNIVERSITY OF …, priority 2021, published 2024):
# Test: pH of triazene water solution before, during and after 370 nm irradiation
# Format: physicochemical
# Conditions: 0.5 mM triazene in water, 370 nm light; for pH change during irradiation: 1 minute
# Description: Referring to FIG. 5, 0.5 mM of triazenes 1a, 1g, and 1i were incubated in a water solution and the relative pH was measured before, during, and after irradiation with 370 nm light. […] Furthermore, the data notes that after irradiation has ceased, there is an immediate drop in pH consistent with the reversion of the scaffold to the trans-species.
Structure (SMILES),relative change in pH versus 1g,pH change during irradiation
COc1ccc(N=NN2CCCCC2)cc1 [1i],over double that of 1g,
c1ccc(N=NN2CCCCC2)cc1 [1g],,notable increases of pH
COc1ccc(N=Nc2ccc(O)cc2O)cc1 [2i],,notable increases of pH
O=[N+]([O-])c1ccc(N=NN2CCCCC2)cc1 [1a],,did not elicit notable pH change
